Square brackets hold non-standard residues; d marks the D form. Peptide text beside a SMILES is read from it. * marks the point of attachment. ξ: configuration not given here. pGlu = O=C1CC[C@@H](C(=O)O)N1; ξE = NC(CCC(=O)O)C(=O)O; OcHex = C1CCC(O*)CC1; OBn = c1ccc(CO*)cc1; OtBu = CC(C)(C)O*
How the values were obtained:
[1] = Half-life using mouse brain homogenate; assay type: ADME
Mus musculus [2] = species on record: Mus musculus; test: (§1) Effective dose required for producing 50% of the maximum analeptic response was determined; assay type: functional
Mus musculus [3] = species on record: Mus musculus; test: as §1; assay type: functional, organism-based

Molecule `CCCCCCOC(=O)CCC(NC(=O)[C@@H]1CCC(=O)N1)C(=O)N1CCC[C@H]1C(N)=O` (some centres not stated) has a half-life [1] of 22 min and an ED50 (Mus musculus [2]) of 2.4 µmol/kg.

For `NC(=O)[C@@H]1CCCN1C(=O)[C@H](CCC(=O)O)NC(=O)[C@@H]1CCC(=O)N1` ([pGlu]-Glu-Pro-NH2), the EC50 (Mus musculus [3]) was 23.2 µM/kg.

Molecule `NC(=O)[C@@H]1CCCN1C(=O)C(CCC(=O)OCc1ccccc1)NC(=O)[C@@H]1CCC(=O)N1` (some centres not stated) ([pGlu]-[ξE](OBn)-Pro-NH2) has a half-life [1] of over 120 min.

`COC(=O)CCC(NC(=O)[C@@H]1CCC(=O)N1)C(=O)N1CCC[C@H]1C(N)=O` (some centres not stated) ([pGlu]-[ξE](OMe)-Pro-NH2) showed a half-life [1] of 20 min.

In the case of `NC(=O)[C@@H]1CCCN1C(=O)C(CCC(=O)OC1CCCCC1)NC(=O)[C@@H]1CCC(=O)N1` (some centres not stated) ([pGlu]-[ξE](OcHex)-Pro-NH2), the half-life [1] was 25 min.

With `CC(C)(C)OC(=O)CCC(NC(=O)[C@@H]1CCC(=O)N1)C(=O)N1CCC[C@H]1C(N)=O` (some centres not stated) ([pGlu]-[ξE](OtBu)-Pro-NH2) the half-life [1] was 70 min.

From ChEMBL document CHEMBL1136637, “Prodrugs to enhance central nervous system effects of the TRH-like peptide pGlu-Glu-Pro-NH2” (Bioorg Med Chem Lett, 2003)
